The values below come from ChEMBL document CHEMBL1150976, “The selectivity of protein kinase inhibitors: a further update” (Biochem J, 2007).

Molecules are shown by their SMILES.

Test [1] concerns the target SRSF protein kinase 1 (Homo sapiens) (UniProt Q96SB4). Nature of the test: Percentage SRPK1 activity remaining in the presence of 0.01uM inhibitor.
For test [2], the target named is MAP/microtubule affinity-regulating kinase 3 (Homo sapiens) (UniProt P27448). Put plainly: Percentage MARK3 activity remaining in the presence of 0.01uM inhibitor. As to conditions: filed as antagonist.
Test [3] addresses Maternal embryonic leucine zipper kinase (Homo sapiens) (UniProt Q14680). Put plainly: Percentage MELK activity remaining in the presence of 25uM inhibitor.
Test [4] has as its target T1, Serine/threonine-protein kinase Nek2 (Homo sapiens) (UniProt P51955).
T1 sequence (whole entry): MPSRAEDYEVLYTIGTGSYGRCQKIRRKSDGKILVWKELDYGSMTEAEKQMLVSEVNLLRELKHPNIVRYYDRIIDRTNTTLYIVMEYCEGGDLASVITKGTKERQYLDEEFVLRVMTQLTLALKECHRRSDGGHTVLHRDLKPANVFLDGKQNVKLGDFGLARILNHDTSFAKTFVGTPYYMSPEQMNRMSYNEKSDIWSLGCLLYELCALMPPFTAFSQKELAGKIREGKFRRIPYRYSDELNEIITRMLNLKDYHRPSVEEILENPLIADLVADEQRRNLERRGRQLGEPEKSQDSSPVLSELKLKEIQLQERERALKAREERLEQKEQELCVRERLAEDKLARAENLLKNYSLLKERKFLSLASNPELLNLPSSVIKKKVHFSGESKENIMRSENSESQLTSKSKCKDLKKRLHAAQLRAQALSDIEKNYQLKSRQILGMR
Put plainly: Percentage NEK2a activity remaining in the presence of 25uM inhibitor.

Test [5] addresses T2, Dual specificity tyrosine-phosphorylation-regulated kinase 2 (Homo sapiens) (UniProt Q92630).
T2 sequence (whole entry): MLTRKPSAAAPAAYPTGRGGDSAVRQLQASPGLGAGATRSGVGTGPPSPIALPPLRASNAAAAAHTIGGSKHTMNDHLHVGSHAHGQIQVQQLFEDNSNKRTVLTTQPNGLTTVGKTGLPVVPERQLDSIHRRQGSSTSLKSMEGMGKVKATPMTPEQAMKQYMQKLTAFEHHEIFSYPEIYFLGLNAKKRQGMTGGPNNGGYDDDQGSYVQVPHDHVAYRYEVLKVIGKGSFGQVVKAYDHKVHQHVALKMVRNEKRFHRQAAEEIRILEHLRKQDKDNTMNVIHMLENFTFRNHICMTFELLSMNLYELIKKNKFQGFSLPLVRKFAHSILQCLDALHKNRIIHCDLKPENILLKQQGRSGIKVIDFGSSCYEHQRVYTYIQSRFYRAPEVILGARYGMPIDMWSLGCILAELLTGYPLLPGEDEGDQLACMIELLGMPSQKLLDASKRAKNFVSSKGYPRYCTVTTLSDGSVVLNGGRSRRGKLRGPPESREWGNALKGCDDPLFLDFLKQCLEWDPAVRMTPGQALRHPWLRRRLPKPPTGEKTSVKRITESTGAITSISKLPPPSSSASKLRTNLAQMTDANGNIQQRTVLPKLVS
Put plainly: Percentage DYRK2 activity remaining in the presence of 25uM inhibitor.

The species entered for test [6] is Homo sapiens. Put plainly: Percentage PHK activity remaining in the presence of 25uM inhibitor.
Test [7] concerns the target Proto-oncogene tyrosine-protein kinase LCK (Mus musculus) (UniProt P06240). Nature of the test: Percentage Lck activity remaining in the presence of 25uM inhibitor.
The target in test [8] is Ribosomal protein S6 kinase beta-1 (Homo sapiens, UniProt P23443). Nature of the test: Percentage S6K1 activity remaining in the presence of 25uM inhibitor.
Ribosomal protein S6 kinase beta-1, sequence (P23443 whole entry, looked up): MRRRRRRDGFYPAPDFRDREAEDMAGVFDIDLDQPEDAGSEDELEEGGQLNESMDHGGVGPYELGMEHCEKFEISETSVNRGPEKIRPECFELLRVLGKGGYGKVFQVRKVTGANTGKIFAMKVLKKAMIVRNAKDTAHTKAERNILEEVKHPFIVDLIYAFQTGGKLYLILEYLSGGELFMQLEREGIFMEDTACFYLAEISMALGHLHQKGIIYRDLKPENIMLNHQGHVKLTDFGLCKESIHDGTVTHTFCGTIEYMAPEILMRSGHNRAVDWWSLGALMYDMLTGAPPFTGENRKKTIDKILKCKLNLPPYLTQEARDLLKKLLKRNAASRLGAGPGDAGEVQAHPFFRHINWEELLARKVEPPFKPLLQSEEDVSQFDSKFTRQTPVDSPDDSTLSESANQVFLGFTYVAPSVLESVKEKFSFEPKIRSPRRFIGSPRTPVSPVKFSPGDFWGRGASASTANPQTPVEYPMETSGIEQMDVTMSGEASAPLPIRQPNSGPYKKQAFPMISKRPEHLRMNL
Test [9] concerns the target Mitogen-activated protein kinase 10 (Homo sapiens) (UniProt P53779). Put plainly: Percentage JNK3 activity remaining in the presence of 25uM inhibitor.
Test [10] has as its target Tyrosine-protein kinase CSK (Homo sapiens, UniProt P41240). Nature of the test: Percentage CSK activity remaining in the presence of 25uM inhibitor.
Test [11] deals with Homeodomain-interacting protein kinase 2 (Homo sapiens) (UniProt Q9H2X6). Nature of the test: Percentage HIPK2 activity remaining in the presence of 25uM inhibitor.
For test [12], the target named is Serine/threonine-protein kinase pim-3 (Homo sapiens, UniProt Q86V86). Nature of the test: Percentage PIM3 activity remaining in the presence of 25uM inhibitor. As to conditions: filed as antagonist.
Test [13] addresses MAP kinase-interacting serine/threonine-protein kinase 2 (Homo sapiens) (UniProt Q9HBH9). Put plainly: Percentage MNK2 activity remaining in the presence of 25uM inhibitor.
Test [14] deals with T3, Mitogen-activated protein kinase 15 (Homo sapiens) (UniProt Q8TD08).
T3 sequence (whole entry): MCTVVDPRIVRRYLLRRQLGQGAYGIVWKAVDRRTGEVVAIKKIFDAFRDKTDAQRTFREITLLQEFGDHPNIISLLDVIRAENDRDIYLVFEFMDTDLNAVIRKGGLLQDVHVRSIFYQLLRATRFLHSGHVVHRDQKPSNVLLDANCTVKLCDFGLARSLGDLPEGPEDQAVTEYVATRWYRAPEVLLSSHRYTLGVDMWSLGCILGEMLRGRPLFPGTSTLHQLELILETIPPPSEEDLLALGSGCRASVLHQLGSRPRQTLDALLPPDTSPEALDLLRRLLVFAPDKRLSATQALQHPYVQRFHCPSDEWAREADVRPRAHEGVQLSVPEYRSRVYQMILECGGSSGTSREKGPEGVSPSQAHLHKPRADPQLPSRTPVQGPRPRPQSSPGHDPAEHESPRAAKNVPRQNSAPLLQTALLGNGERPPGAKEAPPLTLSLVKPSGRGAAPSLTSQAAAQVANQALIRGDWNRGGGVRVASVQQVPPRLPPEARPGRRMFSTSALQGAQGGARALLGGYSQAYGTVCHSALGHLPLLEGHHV
Nature of the test: Percentage ERK8 activity remaining in the presence of 25uM inhibitor.

The target in test [15] is MAP kinase-activated protein kinase 2 (Homo sapiens) (UniProt P49137). Put plainly: Percentage MAPKAPK2 activity remaining in the presence of […]uM inhibitor. The conditions noted are these: at 25 µM.
MAP kinase-activated protein kinase 2 (Homo sapiens), sequence (P49137 whole entry, looked up): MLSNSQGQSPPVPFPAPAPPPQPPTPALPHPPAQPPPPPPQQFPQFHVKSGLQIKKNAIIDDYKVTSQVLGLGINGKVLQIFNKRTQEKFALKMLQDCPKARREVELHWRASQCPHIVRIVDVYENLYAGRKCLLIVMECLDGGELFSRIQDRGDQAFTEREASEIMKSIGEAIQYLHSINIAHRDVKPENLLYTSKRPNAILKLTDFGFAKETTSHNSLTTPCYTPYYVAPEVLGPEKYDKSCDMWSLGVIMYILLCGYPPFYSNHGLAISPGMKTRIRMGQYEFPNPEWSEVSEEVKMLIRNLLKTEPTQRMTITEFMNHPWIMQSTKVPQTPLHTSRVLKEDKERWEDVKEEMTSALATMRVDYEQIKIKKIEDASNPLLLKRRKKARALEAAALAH
The target in test [16] is Ribosomal protein S6 kinase alpha-1 (Homo sapiens) (UniProt Q15418). Put plainly: Percentage RSK1 activity remaining in the presence of 25uM inhibitor.
The target of test [17] is Serine/threonine-protein kinase N2 (Homo sapiens) (UniProt Q16513). Nature of the test: Percentage PRK2 activity remaining in the presence of 25uM inhibitor.
Serine/threonine-protein kinase N2 (Homo sapiens), sequence (Q16513 whole entry, looked up): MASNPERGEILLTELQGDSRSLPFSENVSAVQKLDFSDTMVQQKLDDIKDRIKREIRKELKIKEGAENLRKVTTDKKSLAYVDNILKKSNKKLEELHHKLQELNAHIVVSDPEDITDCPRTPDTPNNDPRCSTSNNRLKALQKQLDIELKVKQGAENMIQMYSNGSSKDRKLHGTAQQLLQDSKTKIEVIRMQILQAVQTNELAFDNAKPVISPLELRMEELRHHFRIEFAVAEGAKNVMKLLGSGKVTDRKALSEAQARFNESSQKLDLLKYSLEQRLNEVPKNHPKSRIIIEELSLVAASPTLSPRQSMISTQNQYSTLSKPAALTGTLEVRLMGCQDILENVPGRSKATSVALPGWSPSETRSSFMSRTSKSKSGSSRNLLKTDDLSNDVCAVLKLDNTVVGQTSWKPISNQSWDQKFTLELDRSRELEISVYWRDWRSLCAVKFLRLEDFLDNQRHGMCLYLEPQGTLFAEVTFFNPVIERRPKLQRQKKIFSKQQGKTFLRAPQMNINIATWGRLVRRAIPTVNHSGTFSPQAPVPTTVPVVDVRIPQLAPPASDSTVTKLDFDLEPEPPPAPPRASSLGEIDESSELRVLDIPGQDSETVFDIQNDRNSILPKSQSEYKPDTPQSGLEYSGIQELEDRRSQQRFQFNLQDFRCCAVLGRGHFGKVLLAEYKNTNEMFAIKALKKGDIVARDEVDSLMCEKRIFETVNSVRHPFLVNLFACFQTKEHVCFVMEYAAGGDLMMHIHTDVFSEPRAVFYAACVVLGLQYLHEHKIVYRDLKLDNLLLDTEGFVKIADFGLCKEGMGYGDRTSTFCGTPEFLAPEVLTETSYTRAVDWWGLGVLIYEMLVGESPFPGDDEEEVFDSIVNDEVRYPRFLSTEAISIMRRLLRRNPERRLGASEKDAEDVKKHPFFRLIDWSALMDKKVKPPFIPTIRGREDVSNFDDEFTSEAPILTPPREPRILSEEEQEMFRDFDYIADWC
Test [18] concerns the target RAC-beta serine/threonine-protein kinase (Homo sapiens) (UniProt P31751). Nature of the test: Percentage PKBbeta activity remaining in the presence of 25uM inhibitor.
Test [19] deals with Serine/threonine-protein kinase Nek7 (Homo sapiens) (UniProt Q8TDX7). Put plainly: Percentage NEK7 activity remaining in the presence of 25uM inhibitor.
Serine/threonine-protein kinase Nek7 (Homo sapiens), sequence (Q8TDX7 whole entry, looked up): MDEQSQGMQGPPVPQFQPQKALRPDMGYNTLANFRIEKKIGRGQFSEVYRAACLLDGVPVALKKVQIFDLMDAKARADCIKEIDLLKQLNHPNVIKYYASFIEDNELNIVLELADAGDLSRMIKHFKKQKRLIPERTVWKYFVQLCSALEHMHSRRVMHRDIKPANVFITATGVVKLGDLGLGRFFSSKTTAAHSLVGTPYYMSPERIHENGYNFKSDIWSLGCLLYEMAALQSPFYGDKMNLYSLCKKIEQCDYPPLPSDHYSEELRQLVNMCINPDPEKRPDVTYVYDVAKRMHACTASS
The target of test [20] is Serine/threonine-protein kinase pim-1 (Homo sapiens, UniProt P11309). Put plainly: Percentage PIM1 activity remaining in the presence of 25uM inhibitor. As to conditions: filed as antagonist.
For test [21], the target named is RAC-alpha serine/threonine-protein kinase (Homo sapiens) (UniProt P31749). Nature of the test: Percentage PKBalpha activity remaining in the presence of 25uM inhibitor.
RAC-alpha serine/threonine-protein kinase (Homo sapiens), sequence (P31749 whole entry): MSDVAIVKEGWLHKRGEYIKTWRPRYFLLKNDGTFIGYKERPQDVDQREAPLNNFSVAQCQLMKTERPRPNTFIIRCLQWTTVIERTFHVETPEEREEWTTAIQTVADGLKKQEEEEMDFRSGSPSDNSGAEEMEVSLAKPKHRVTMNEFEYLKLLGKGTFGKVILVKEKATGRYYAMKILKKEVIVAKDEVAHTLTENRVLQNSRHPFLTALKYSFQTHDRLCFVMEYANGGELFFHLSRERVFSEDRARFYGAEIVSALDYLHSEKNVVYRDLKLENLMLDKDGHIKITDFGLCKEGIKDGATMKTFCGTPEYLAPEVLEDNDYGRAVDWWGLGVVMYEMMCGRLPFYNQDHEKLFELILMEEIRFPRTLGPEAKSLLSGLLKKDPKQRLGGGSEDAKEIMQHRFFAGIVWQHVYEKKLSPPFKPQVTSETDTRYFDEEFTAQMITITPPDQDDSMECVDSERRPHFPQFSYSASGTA

SRSF protein kinase 1 (Homo sapiens), sequence (Q96SB4 whole entry): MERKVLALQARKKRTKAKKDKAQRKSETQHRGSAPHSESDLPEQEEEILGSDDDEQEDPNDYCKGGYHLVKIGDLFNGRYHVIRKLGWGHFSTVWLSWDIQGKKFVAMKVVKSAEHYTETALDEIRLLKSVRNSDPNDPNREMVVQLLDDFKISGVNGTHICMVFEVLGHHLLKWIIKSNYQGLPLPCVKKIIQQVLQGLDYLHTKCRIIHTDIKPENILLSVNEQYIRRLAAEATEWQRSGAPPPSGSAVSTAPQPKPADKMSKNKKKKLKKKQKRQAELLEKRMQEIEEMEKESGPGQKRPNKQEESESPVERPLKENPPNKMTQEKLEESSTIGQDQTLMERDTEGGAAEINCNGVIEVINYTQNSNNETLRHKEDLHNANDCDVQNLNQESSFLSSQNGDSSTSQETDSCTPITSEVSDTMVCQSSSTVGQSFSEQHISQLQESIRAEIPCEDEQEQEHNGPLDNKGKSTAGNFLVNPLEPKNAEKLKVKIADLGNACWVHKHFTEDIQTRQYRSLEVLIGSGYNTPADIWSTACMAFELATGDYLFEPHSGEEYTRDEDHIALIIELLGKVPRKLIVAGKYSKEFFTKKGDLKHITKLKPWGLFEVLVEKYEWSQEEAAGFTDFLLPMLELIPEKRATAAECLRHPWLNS
Maternal embryonic leucine zipper kinase (Homo sapiens), sequence (Q14680 whole entry, looked up): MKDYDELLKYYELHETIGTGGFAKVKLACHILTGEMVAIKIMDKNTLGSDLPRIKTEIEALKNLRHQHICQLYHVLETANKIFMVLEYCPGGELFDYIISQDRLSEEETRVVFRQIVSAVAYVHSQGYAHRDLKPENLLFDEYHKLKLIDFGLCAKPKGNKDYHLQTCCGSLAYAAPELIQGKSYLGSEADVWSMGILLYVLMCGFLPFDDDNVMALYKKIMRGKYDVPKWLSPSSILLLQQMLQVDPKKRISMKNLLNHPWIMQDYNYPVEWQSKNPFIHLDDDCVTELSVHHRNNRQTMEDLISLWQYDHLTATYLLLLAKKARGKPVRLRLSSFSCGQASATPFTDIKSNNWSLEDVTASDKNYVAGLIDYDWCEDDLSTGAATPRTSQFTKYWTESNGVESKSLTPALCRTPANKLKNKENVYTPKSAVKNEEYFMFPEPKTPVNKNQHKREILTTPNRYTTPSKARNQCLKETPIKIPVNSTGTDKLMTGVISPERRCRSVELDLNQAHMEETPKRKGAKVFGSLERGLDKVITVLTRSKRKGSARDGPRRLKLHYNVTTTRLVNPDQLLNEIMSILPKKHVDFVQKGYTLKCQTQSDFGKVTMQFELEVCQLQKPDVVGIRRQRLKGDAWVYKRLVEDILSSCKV
Proto-oncogene tyrosine-protein kinase LCK (Mus musculus), sequence (P06240 2-509 limits assumed): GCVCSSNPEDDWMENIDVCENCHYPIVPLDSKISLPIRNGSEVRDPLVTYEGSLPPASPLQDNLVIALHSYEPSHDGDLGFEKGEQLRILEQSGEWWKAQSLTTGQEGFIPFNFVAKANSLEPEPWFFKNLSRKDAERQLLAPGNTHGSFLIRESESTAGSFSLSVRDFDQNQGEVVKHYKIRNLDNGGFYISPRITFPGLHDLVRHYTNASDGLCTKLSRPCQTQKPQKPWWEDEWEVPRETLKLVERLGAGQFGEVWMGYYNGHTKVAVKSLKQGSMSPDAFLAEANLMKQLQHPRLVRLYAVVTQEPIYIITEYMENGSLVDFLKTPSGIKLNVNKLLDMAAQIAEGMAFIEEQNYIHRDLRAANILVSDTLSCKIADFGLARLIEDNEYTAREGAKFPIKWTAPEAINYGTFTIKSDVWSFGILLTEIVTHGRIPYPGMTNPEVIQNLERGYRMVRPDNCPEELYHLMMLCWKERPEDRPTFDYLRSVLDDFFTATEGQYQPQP
Mitogen-activated protein kinase 10 (Homo sapiens), sequence (P53779 whole entry): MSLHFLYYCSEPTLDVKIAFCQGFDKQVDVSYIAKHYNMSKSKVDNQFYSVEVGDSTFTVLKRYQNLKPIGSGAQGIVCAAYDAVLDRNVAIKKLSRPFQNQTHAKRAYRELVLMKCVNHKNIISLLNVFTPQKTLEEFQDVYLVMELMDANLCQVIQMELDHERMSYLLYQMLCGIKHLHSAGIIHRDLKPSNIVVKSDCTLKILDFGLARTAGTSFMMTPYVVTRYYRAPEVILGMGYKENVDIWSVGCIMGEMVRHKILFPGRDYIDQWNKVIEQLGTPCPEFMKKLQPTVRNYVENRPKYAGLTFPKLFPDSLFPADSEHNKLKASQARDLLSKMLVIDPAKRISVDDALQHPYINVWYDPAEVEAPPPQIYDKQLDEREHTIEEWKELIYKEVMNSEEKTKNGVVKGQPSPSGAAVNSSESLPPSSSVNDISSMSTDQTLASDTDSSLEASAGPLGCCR

Turning to `Cc1n[nH]c2ccc(-c3cncc(OC[C@@H](N)Cc4c[nH]c5ccccc45)c3)cc12`, in test [1], the Activity was determined as 92%.

For `O=C(NCCCNc1nc(Nc2cccc(NC(=O)N3CCCC3)c2)ncc1I)c1cccs1`, the Activity in [2] was 12%; in test [1], 99%.

Consider `COc1cc(OC)c(/C=C2/C(=O)Nc3ccccc32)c(OC)c1`, for which the Activity in test [3] was 75%; in test [4] it was 75%; in test [5], 99%; in [6] it was 86%; in test [7] (filed as antagonist), 49%; in test [8], 84%. The Activity in test [9] is 93%; in test [10], 81%; in test [11] it was 96%; in test [12], 41%; in test [13], 97%; in test [14], 68%. Further, the Activity is 88% in test [15]; 87% in [16]; 87% in test [17]; 90% in [18]; 103% in test [19]; 43% in test [20]. In addition, the Activity in test [21] was determined as 94%.

With `CN[C@@H]1C[C@H]2O[C@@](C)([C@@H]1OC)n1c3ccccc3c3c4c(c5c6ccccc6n2c5c31)C(=O)N[C@H]4O` (stereo in doubt), in [2], the Activity was 6%.

Regarding `NCCNS(=O)(=O)c1ccc(Cl)c2ccncc12`, the Activity was 63% in test [3]; 85% in test [4]; 76% in test [5]; 72% in test [6]; 83% in [7]; 49% in [8] (filed as antagonist). For the same compound, the Activity in [9] was 103%; in test [10], 79%; in test [11], 98%; in test [12], 28%; in test [13], 76%; in test [14] (filed as antagonist), 29%. Further, the Activity in test [15] is 85%; in test [16] (filed as antagonist), 48%; in [17] (filed as antagonist) it was 47%; in test [18], 89%; in test [19], 102%; in [20], 28%. Also, in test [21], the Activity stood at 54%.
